Tested on: 186277-243-T-J2-PDC complex spheroid viability
Assay: Anticancer human tumor 186277-243-T-J2-PDC patient-derived colon adenocarcinoma cell line growth inhibition [POLQ]
Conditions: for IC50: curve of first compound; for viability, T/C: stronger effect = lower value
Outline: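 PDC + HUVEC + MSC complex spheroids; POLQ inhibitors ± partner drugs; top conc. at/near clinical Cmax, else 10 microM (SN-38 1 microM), half-log dilutions; 37 degrees C, 5% CO2.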

[1] = second compound 0.0316 µM, first compound 0.0316 µM
[2] = second compound 0.0316 µM, first compound 0.1 µM
[3] = second compound 0.0316 µM, first compound 0.316 µM
[4] = second compound 0.0316 µM, first compound 1 µM
[5] = second compound 0.0316 µM, first compound 3.16 µM
[6] = second compound 0.0316 µM, first compound 10 µM
[7] = second compound 0.1 µM, first compound 0.0316 µM
[8] = second compound 0.1 µM, first compound 0.1 µM
[9] = second compound 0.1 µM, first compound 0.316 µM
[10] = second compound 0.1 µM, first compound 1 µM
[11] = second compound 0.1 µM, first compound 3.16 µM
[12] = second compound 0.1 µM, first compound 10 µM
[13] = second compound 0.316 µM, first compound 0.0316 µM
[14] = second compound 0.316 µM, first compound 0.1 µM
[15] = second compound 0.316 µM, first compound 0.316 µM
[16] = second compound 0.316 µM, first compound 1 µM
[17] = second compound 0.316 µM, first compound 3.16 µM
[18] = second compound 0.316 µM, first compound 10 µM
[19] = second compound 1 µM, first compound 0.0316 µM
[20] = second compound 1 µM, first compound 0.1 µM
[21] = second compound 1 µM, first compound 0.316 µM
[22] = second compound 1 µM, first compound 1 µM
[23] = second compound 1 µM, first compound 3.16 µM
[24] = second compound 1 µM, first compound 10 µM
[25] = second compound 3.16 µM, first compound 0.0316 µM
[26] = second compound 3.16 µM, first compound 0.1 µM
[27] = second compound 3.16 µM, first compound 0.316 µM
[28] = second compound 3.16 µM, first compound 1 µM
[29] = second compound 3.16 µM, first compound 3.16 µM
[30] = second compound 3.16 µM, first compound 10 µM
[31] = second compound 10 µM, first compound 0.0316 µM
[32] = second compound 10 µM, first compound 0.1 µM
[33] = second compound 10 µM, first compound 0.316 µM
[34] = second compound 10 µM, first compound 1 µM
[35] = second compound 10 µM, first compound 3.16 µM
[36] = second compound 10 µM, first compound 10 µM
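Note: spheroids exposed to compounds for seven days.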
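Throughout, for viability, T/C: 100% = DMSO vehicle control viability.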

SMILES: Nc1ccn(C2OC(CO)C(O)C2(F)F)c(=O)n1 (stereo unspecified) + Nc1ccc(C#CCN(C(=O)Cc2ncc(C(F)(F)F)cc2C(F)(F)F)c2ccc(F)cc2)nn1
- IC50 (second compound 0.0316 µM): < 31.6 nM
- IC50 (second compound 0.1 µM): < 31.6 nM
- IC50 (second compound 0.316 µM): < 31.6 nM
- IC50 (second compound 1 µM): < 31.6 nM
- IC50 (second compound 3.16 µM): < 31.6 nM
- IC50 (second compound 10 µM): < 31.6 nM
- viability, T/C [1]: 14.7%
- viability, T/C [2]: 11.5%
- viability, T/C [3]: 11.6%
- viability, T/C [4]: 14%
- viability, T/C [5]: 14%
- viability, T/C [6]: 13.6%
- viability, T/C [7]: 13.9%
- viability, T/C [8]: 12.2%
- viability, T/C [9]: 12.4%
- viability, T/C [10]: 13.2%
- viability, T/C [11]: 15%
- viability, T/C [12]: 13.8%
- viability, T/C [13]: 14.4%
- viability, T/C [14]: 12.9%
- viability, T/C [15]: 12.7%
- viability, T/C [16]: 13.4%
- viability, T/C [17]: 14.1%
- viability, T/C [18]: 15.2%
- viability, T/C [19]: 12.8%
- viability, T/C [20]: 12%
- viability, T/C [21]: 11.7%
- viability, T/C [22]: 13%
- viability, T/C [23]: 14.8%
- viability, T/C [24]: 14.3%
- viability, T/C [25]: 13%
- viability, T/C [26]: 13.9%
- viability, T/C [27]: 10.6%
- viability, T/C [28]: 11.9%
- viability, T/C [29]: 15.2%
- viability, T/C [30]: 15.3%
- viability, T/C [31]: 12.5%
- viability, T/C [32]: 11.3%
- viability, T/C [33]: 11.5%
- viability, T/C [34]: 11.5%
- viability, T/C [35]: 12.9%
- viability, T/C [36]: 13.9%

SMILES: CC(=O)O[C@H]1C(=O)[C@@]2(C)[C@H]([C@H](OC(=O)c3ccccc3)[C@]3(O)C[C@H](OC(=O)[C@H](O)[C@@H](NC(=O)c4ccccc4)c4ccccc4)C(C)=C1C3(C)C)[C@]1(OC(C)=O)CO[C@@H]1C[C@@H]2O + Nc1ccc(C#CCN(C(=O)Cc2ncc(C(F)(F)F)cc2C(F)(F)F)c2ccc(F)cc2)nn1
- IC50 (second compound 0.0316 µM): < 9.49 nM
- IC50 (second compound 0.1 µM): < 9.49 nM
- IC50 (second compound 0.316 µM): < 9.49 nM
- IC50 (second compound 1 µM): < 9.49 nM
- IC50 (second compound 3.16 µM): < 9.49 nM
- IC50 (second compound 10 µM): < 9.49 nM
- viability, T/C (second compound 0.0316 µM, first compound 0.00949 µM): 42.4%
- viability, T/C (second compound 0.0316 µM, first compound 0.03 µM): 12.5%
- viability, T/C (second compound 0.0316 µM, first compound 0.0949 µM): 7.75%
- viability, T/C (second compound 0.0316 µM, first compound 0.3 µM): 6.21%
- viability, T/C (second compound 0.0316 µM, first compound 0.949 µM): 5.52%
- viability, T/C (second compound 0.0316 µM, first compound 3 µM): 8.14%
- viability, T/C (second compound 0.1 µM, first compound 0.00949 µM): 41.4%
- viability, T/C (second compound 0.1 µM, first compound 0.03 µM): 10.8%
- viability, T/C (second compound 0.1 µM, first compound 0.0949 µM): 7.09%
- viability, T/C (second compound 0.1 µM, first compound 0.3 µM): 5.96%
- viability, T/C (second compound 0.1 µM, first compound 0.949 µM): 6.1%
- viability, T/C (second compound 0.1 µM, first compound 3 µM): 5.64%
- viability, T/C (second compound 0.316 µM, first compound 0.00949 µM): 41.7%
- viability, T/C (second compound 0.316 µM, first compound 0.03 µM): 11.7%
- viability, T/C (second compound 0.316 µM, first compound 0.0949 µM): 7.17%
- viability, T/C (second compound 0.316 µM, first compound 0.3 µM): 6.38%
- viability, T/C (second compound 0.316 µM, first compound 0.949 µM): 5.86%
- viability, T/C (second compound 0.316 µM, first compound 3 µM): 6.59%
- viability, T/C (second compound 1 µM, first compound 0.00949 µM): 36.1%
- viability, T/C (second compound 1 µM, first compound 0.03 µM): 13.4%
- viability, T/C (second compound 1 µM, first compound 0.0949 µM): 6.63%
- viability, T/C (second compound 1 µM, first compound 0.3 µM): 5.56%
- viability, T/C (second compound 1 µM, first compound 0.949 µM): 6.34%
- viability, T/C (second compound 1 µM, first compound 3 µM): 5.24%
- viability, T/C (second compound 3.16 µM, first compound 0.00949 µM): 28.4%
- viability, T/C (second compound 3.16 µM, first compound 0.03 µM): 10.8%
- viability, T/C (second compound 3.16 µM, first compound 0.0949 µM): 7.02%
- viability, T/C (second compound 3.16 µM, first compound 0.3 µM): 6.36%
- viability, T/C (second compound 3.16 µM, first compound 0.949 µM): 6.4%
- viability, T/C (second compound 3.16 µM, first compound 3 µM): 4.96%
- viability, T/C (second compound 10 µM, first compound 0.00949 µM): 21.8%
- viability, T/C (second compound 10 µM, first compound 0.03 µM): 8.01%
- viability, T/C (second compound 10 µM, first compound 0.0949 µM): 6.35%
- viability, T/C (second compound 10 µM, first compound 0.3 µM): 5.6%
- viability, T/C (second compound 10 µM, first compound 0.949 µM): 7.72%
- viability, T/C (second compound 10 µM, first compound 3 µM): 5.68%

SMILES: CC1COCCN1c1cc(C2(S(C)(=N)=O)CC2)nc(-c2ccnc3[nH]ccc23)n1 (stereo unspecified) + Nc1ccc(C#CCN(C(=O)Cc2ncc(C(F)(F)F)cc2C(F)(F)F)c2ccc(F)cc2)nn1
- IC50 (second compound 0.0316 µM): 1810 nM
- IC50 (second compound 0.1 µM): 1790 nM
- IC50 (second compound 0.316 µM): 1890 nM
- IC50 (second compound 1 µM): 1780 nM
- IC50 (second compound 3.16 µM): 1660 nM
- IC50 (second compound 10 µM): 1640 nM
- viability, T/C [1]: 103%
- viability, T/C [2]: 96.5%
- viability, T/C [3]: 102%
- viability, T/C [4]: 88.1%
- viability, T/C [5]: 14.1%
- viability, T/C [6]: 9.47%
- viability, T/C [7]: 97.2%
- viability, T/C [8]: 90.5%
- viability, T/C [9]: 93%
- viability, T/C [10]: 85.9%
- viability, T/C [11]: 14.8%
- viability, T/C [12]: 10.2%
- viability, T/C [13]: 109%
- viability, T/C [14]: 102%
- viability, T/C [15]: 110%
- viability, T/C [16]: 93.6%
- viability, T/C [17]: 14.8%
- viability, T/C [18]: 10.7%
- viability, T/C [19]: 99.4%
- viability, T/C [20]: 105%
- viability, T/C [21]: 98.8%
- viability, T/C [22]: 84.8%
- viability, T/C [23]: 15.2%
- viability, T/C [24]: 8.83%
- viability, T/C [25]: 109%
- viability, T/C [26]: 104%
- viability, T/C [27]: 118%
- viability, T/C [28]: 78.7%
- viability, T/C [29]: 15%
- viability, T/C [30]: 8.91%
- viability, T/C [31]: 105%
- viability, T/C [32]: 94.5%
- viability, T/C [33]: 97.6%
- viability, T/C [34]: 77.1%
- viability, T/C [35]: 14.3%
- viability, T/C [36]: 8.26%
